Columns and labels:
Assay in all cases: relative viability (nuclei count vs DMSO), 5 days (fraction); higher = more cells survive
[1] = compound: O=C(CCCCCCNC(=O)c1cnc(N(c2ccccc2)c2ccccc2)nc1)NO [Ricolinostat] + Cc1cc(Nc2cc(N3CCN(C)CC3)nc(Sc3ccc(NC(=O)C4CC4)cc3)n2)n[nH]1 [Tozasertib] (partner 0.1 µM)
Summary of the method: (§1)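 The day after seeding in 1536-well plates, lung cancer cell lines were treated by pin tool with a single drug, or with a fixed anchor-drug dose together with five library-drug doses (not always all listed) in √10 steps. After 5 days, a combined fix-and-stain solution (final 0.05% Triton X-100, 1% formaldehyde, 1 ug/ml Hoechst) was added. Nuclei counted on 4× images gave relative viability as treated counts over vehicle counts, reported as the median of duplicate plates.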

Ricolinostat + Olaparib = compound: O=C(CCCCCCNC(=O)c1cnc(N(c2ccccc2)c2ccccc2)nc1)NO [Ricolinostat] + O=C(c1cc(Cc2n[nH]c(=O)c3ccccc23)ccc1F)N1CCN(C(=O)C2CC2)CC1 [Olaparib] (partner 8 µM)
Summary of the method: as §1

[2] = compound: C1=CC=C(C(=C1)C2=CC=C(C=C2)C3=CSC4=C3C(=C(C(=O)N4)C#N)O)O + O=C(CCCCCCC(=O)Nc1ccccc1)NO [Vorinostat] (partner 1 µM)
Summary of the method: as §1

[3] = compound: C1=CC=C(C(=C1)C2=CC=C(C=C2)C3=CSC4=C3C(=C(C(=O)N4)C#N)O)O + Nc1nc2[nH]cc(CCc3ccc(C(=O)N[C@@H](CCC(=O)O)C(=O)O)cc3)c2c(=O)[nH]1 [Pemetrexed] (partner 0.2 µM)
Summary of the method: as §1

Cell Line	relative viability ([1]; first compound 0.08 µM)	relative viability ([1]; first compound 0.253 µM)	relative viability ([1]; first compound 0.8 µM)	relative viability ([1]; first compound 2.53 µM)	relative viability (Ricolinostat + Olaparib; first compound 0.08 µM)	relative viability (Ricolinostat + Olaparib; first compound 0.253 µM)	relative viability (Ricolinostat + Olaparib; first compound 0.8 µM)	relative viability (Ricolinostat + Olaparib; first compound 2.53 µM)	relative viability ([2]; first compound 0.08 µM)	relative viability ([2]; first compound 0.253 µM)	relative viability ([2]; first compound 0.8 µM)	relative viability ([2]; first compound 2.53 µM)	relative viability ([2]; first compound 8 µM)	relative viability ([3]; first compound 0.08 µM)	relative viability ([3]; first compound 0.253 µM)	relative viability ([3]; first compound 0.8 µM)	relative viability ([3]; first compound 2.53 µM)	relative viability ([3]; first compound 8 µM)
HOP-62	0.374	0.344	0.35	0.312	0.516	0.408	0.31	0.394	0.586	0.856	0.607	0.647	0.522	0.364	0.336	0.301	0.348	0.279
IA-LM	–	–	–	–	0.728	0.92	0.737	0.586	–	1.37	0.856	1	0.376	–	–	–	–	–
LC-2-ad	0.474	0.412	0.371	0.299	0.699	0.639	0.665	0.285	0.627	0.643	0.705	0.722	0.654	0.268	0.288	0.279	0.306	0.257
LCLC-97TM1	0.171	0.2	0.149	0.153	0.355	0.446	0.486	0.341	0.614	1.42	0.636	0.724	0.431	0.177	0.179	0.16	0.182	0.166
LCLC-103H	0.443	0.401	0.393	0.337	0.675	0.655	0.771	0.743	0.722	0.81	0.707	0.767	0.728	0.51	0.453	0.431	0.456	0.519
LK-2	0.181	0.181	0.202	0.174	0.623	0.687	0.691	0.575	0.22	0.26	0.28	0.321	0.255	0.168	0.245	0.236	0.325	0.196
LOU-NH91	0.571	0.639	0.595	0.528	–	0.883	0.905	0.858	0.892	0.926	0.888	0.886	0.848	0.386	0.337	0.399	0.384	0.406
LU99A	0.258	0.276	0.224	0.239	0.281	0.255	0.206	0.175	0.501	0.478	0.702	0.49	0.425	0.191	0.138	0.265	0.178	0.335
LXF-289	0.192	0.201	0.22	0.19	1.04	1.12	1.04	1.01	0.902	0.831	0.833	0.82	0.907	0.818	0.871	0.909	0.926	0.89
NCI-H23	0.399	0.321	0.393	0.254	0.351	0.278	0.27	0.275	0.541	0.559	0.572	0.525	0.242	0.536	0.619	0.59	0.627	0.653
NCI-H322M	–	0.504	0.517	0.497	0.664	0.879	0.807	0.907	0.841	0.756	0.817	0.865	0.855	0.561	0.574	0.657	0.576	0.559
NCI-H358	0.0975	0.0893	0.107	0.0955	0.444	0.57	0.61	0.652	0.641	0.647	0.666	0.839	0.484	0.156	0.188	0.175	0.162	0.176
NCI-H441	–	0.69	0.561	0.474	0.575	0.471	0.478	0.455	0.551	0.812	0.858	0.818	0.742	0.26	0.282	0.232	0.237	0.267
NCI-H460	0.549	0.46	0.558	0.186	0.362	0.341	0.377	0.159	0.529	0.339	0.866	0.924	0.582	0.0846	0.0612	0.0666	0.0616	0.0618
NCI-H520	–	0.374	0.345	0.345	–	0.305	0.343	0.271	0.655	0.571	0.69	0.726	0.604	0.484	0.676	0.804	0.705	0.608
NCI-H522	0.616	0.565	0.54	0.641	0.61	0.651	0.606	0.676	0.929	0.898	1.06	0.921	0.86	0.965	1.02	1.04	0.911	0.878
NCI-H596	0.977	1.08	0.983	0.859	0.699	0.676	0.693	0.526	0.588	0.574	0.589	0.48	0.527	0.532	0.545	0.544	0.44	0.488
NCI-H727	0.448	0.704	0.734	0.563	0.827	0.624	0.75	0.611	1.38	1.26	1.24	1.21	1.05	–	–	–	–	–
NCI-H1299	–	–	–	–	0.95	0.914	0.942	0.91	–	–	–	–	–	–	–	–	–	–
NCI-H1563	–	–	–	–	–	–	–	–	–	–	–	–	–	0.64	0.688	0.774	0.746	0.783
NCI-H1623	0.489	0.462	0.477	0.424	–	–	–	–	–	–	–	–	–	–	–	–	–	–
NCI-H1703	–	–	–	–	–	0.426	0.332	0.458	–	–	–	–	–	–	–	–	–	–
